Laboratory results published in article PMC9738927, “A Newly Identified Monoterpenoid-Based Small Molecule Able to Support the Survival of Primary Cultured Dopamine Neurons and Alleviate MPTP-Induced Toxicity In Vivo” (Molecules, 2022).

How the values were obtained:
MPTP-treated mice = test system: MPTP-treated mice; design: method as in PMID 31464415; conditions: related compound; cited from earlier work
[1] = test system: naïve primary midbrain dopamine neurons; design: method as in PMID 31464415; conditions: cultured DA neurons; cited from earlier work
[2] = test system: MPTP-lesioned C57BL/6 mice; experiment: DA and DOPAC levels in midbrain and striatum by HPLC-ED after MPTP lesion; assay type: in vivo
Protocol: Neurochemical analyses via HPLC-ED were conducted as described before. Microdissected samples of the striatum (ST) and midbrain were homogenized in 300 and 400 µL of cold 0.6 M HClO4, respectively, using a motor-driven grinder (Z359971, Sigma-Aldrich, USA) and the homogenate was spun for 15 min at 12,000 rpm (+4 °C). The pellet was diluted in 1 mL of 0.1 M NaCl and used for protein quantitation by Bradford (Bio Rad, USA) according to the manufacturer’s protocol. The clear supernatant was diluted twice with pure water and used for assay of DA and […] (DOPAC) by HPLC on Luna C18(2) column (5 μm particle size, L × I.D. 75 × 4.6 mm, Phenomenex, Torrance, CA, USA) with electrochemical detection (750 mV, DECADE II™ Electrochemical Detector; Antec, The Netherlands). The standard mixes containing 1, 2, and 3 ng of DA and DOPAC were repeatedly assayed throughout the entire procedure and used to plot the calibration curves for each substance. The areas of peaks were estimated using LabSolution LG/GC software version 5.54 (Shimadzu Corporation, Japan) and calibrated against the calibrated curves for corresponding standards. The contents of DA and DOPAC were expressed nanogram (ng) per milligram (mg) of protein assayed by Bradford.

[3] = test system: naïve primary midbrain dopamine neurons; experiment: Survival of naïve cultured dopamine neurons (TH-positive cell count); assay type: cell-based, mouse
Protocol: (§1) We developed a compound library containing 20 diol derivatives and screened them on cultured primary DA neurons (Supplementary Materials, Table S1). Compounds were taken at a dose of 0.1 and 1 μM (based on effective doses for the epoxydiol). Based on the screening results, we selected four compounds and tested them in a naïve and MPP^+-treated (1-methyl-4-phenylpyridinium (MPP^+), the neurotoxic metabolite of MPTP) DA culture at 1, 10, and 100 nM to select the compound with the lowest effective dose.
(§2) The survival of cultured mouse DA neurons was assessed as described before. Briefly, naïve or MPP^+ (dopaminergic selective neurotoxin)-challenged embryonic midbrain neurons were cultured in the presence or absence of a diol-like compound. The number of survived DA neurons was estimated after immunocytochemical staining with antibodies recognizing the key enzyme of dopamine synthesis—tyrosine hydroxylase.

[4] = test system: MPP^+-treated primary midbrain dopamine neurons; experiment: Survival of MPP+-challenged cultured dopamine neurons (TH-positive cell count); assay type: cell-based, mouse
Protocol: as §1, §2

[5] = 1 uM, compared to VEH-treated wells
[6] = positive control, compared to VEH

C=C(C)[C@@H]1C[C@H]2O[C@@]2(C)[C@@H](O)[C@@H]1O [epoxydiol]
antiparkinsonian activity in vivo (effective dose) (MPTP-treated mice): 20 mg/kg | effective concentration in survival assay for DA neurons [1]: 100 nM | effective doses in survival assay of cultured dopamine neurons [1]: 0.1 to 1 µM

N[C@@H](Cc1ccc(O)c(O)c1)C(=O)O [L-DOPA, reference compound]
MPTP-induced reduction in DA level in the midbrain [2]: tended to alleviate

C=C(CSC(C)(C)C)C1CC2OC2(C)C(O)C1O (stereo not drawn) [Substance 10]
Support effect / inhibition, Naïve dopamine neurons, 1 uM [3, 5]: - (29-1% – -)

C=C(CSCc1ccccc1)C1CC2OC2(C)C(O)C1O (stereo not drawn) [Substance 13]
Support effect / inhibition, Naïve dopamine neurons, 1 uM [3, 5]: - (29-1% – -)

C=C(CSCC(C)C)C1CC2OC2(C)C(O)C1O (stereo not drawn) [Substance 11]
Support effect / inhibition, Naïve dopamine neurons, 1 uM [3, 5]: - - (Inhibition 69-30% – - -)

C=C(CSc1ccc(Cl)cc1)C1CC2OC2(C)C(O)C1O (stereo not drawn) [Substance 9]
Support effect / inhibition, Naïve dopamine neurons, 1 uM [3, 5]: - (29-1% – -)

C=CC1(O)C(O)C(C)=CCC1C(=C)C (stereo not drawn) [Substance 8]
Support effect / inhibition, MPP+-treated dopamine neurons, 1 nM ([4]; 1 nM, compared to VEH-treated wells): 0 (0% – 0) | Support effect / inhibition, MPP+-treated dopamine neurons, 10 nM ([4]; 10 nM, compared to VEH-treated wells): 0 (0% – 0) | Support effect / inhibition, MPP+-treated dopamine neurons, 100 nM ([4]; 100 nM, compared to VEH-treated wells): 0 (0% – 0)

C#CC1(O)C(O)C(C)=CCC1C(=C)C (stereo not drawn) [Substance 7]
Support effect / inhibition, Naïve dopamine neurons, 1 uM [3, 5]: - (29-1% – -)

C=C(C)[C@@H]1CC=C(C)[C@@H](OC(C)=O)[C@@H]1OC(C)=O [Substance 1]
inhibition at 1 µM ([3]; Mus musculus, Neuron, 1 uM, compared to VEH-treated wells, read-out: Support effect / inhibition, Naïve dopamine neurons, 1 uM): 1 to 29%

B1: GDNF: glial cell line-derived neurotrophic factor, positive control in the neuron survival assays (protein, UniProt P39905 78-211, looked up)
Glial cell line-derived …: SPDKQMAVLPRRERNRQAAAANPENSRGKGRRGQRGKNRGCVLTAIHLNVTDLGLGYETKEELIFRYCSGSCDAAETTYDKILKNLSRNRRLVSDKVGQACCRPIAFDDDLSFLDDNLVYHILRKHSAKRCGCI
survival of naïve primary midbrain dopamine neurons [3, 6]: promotes the survival | survival of MPP+-treated primary midbrain dopamine neurons [4, 6]: promotes the survival
